Data as given in ChEMBL document CHEMBL4808177, “Use of Intramolecular 1,5-Sulfur-Oxygen and 1,5-Sulfur-Halogen Interactions in the Design of N-Methyl-5-aryl-N-(2,2,6,6-tetramethylpiperidin-4-yl)-1,3,4-thiadiazol-2-amine SMN2 Splicing Modulators” (J Med Chem, 2021).
In brackets after ≈: the same amount, converted by molar mass.

How the values were obtained:
[1] = Solubility of the compound at pH 6.8 by high-throughput miniaturized shake flask solubility assay; format: physicochemical; conditions: buffer
[2] = Intrinsic clearance in rat liver microsomes; format: ADME, Microsome; conditions: read-out: CLH
[3] = Cmax in Sprague-Dawley rat at 1 mg/kg, iv and 3 mg/kg, po measured up to 7 hrs by HPLC-MS/MS analysis; format: ADME, organism-based; set-up: dose 3 mg/kg, time <=7; conditions: in vivo
[4] = AUC (extrapolated) in Sprague-Dawley rat at 3 mg/kg, po measured up to 7 hrs by HPLC-MS/MS analysis; format: ADME, organism-based; set-up: route oral, dose 3 mg/kg, time <=7; conditions: in vivo
[5] = Clearance in Sprague-Dawley rat at 1 mg/kg, iv and 3 mg/kg, po measured up to 7 hrs by HPLC-MS/MS analysis; format: ADME, organism-based; conditions: in vivo
[6] = Apparent permeability across apical to basolateral side in human Caco-2 cells; format: ADME, cell-based
[7] = Half life in Sprague-Dawley rat at 1 mg/kg, iv and 3 mg/kg, po measured up to 7 hrs by HPLC-MS/MS analysis; format: ADME, organism-based; conditions: in vivo
[8] = Modulation of SMN2 splicing in myoblast cell line derived from the SMNdelta7 mouse model assessed as increase in SMN level measured as fold activation treated for 24 hrs by ELISA; format: functional, Primary myoblast
[9] = Volume of distribution at steady state in Sprague-Dawley rat at 1 mg/kg, iv and 3 mg/kg, po measured up to 7 hrs by HPLC-MS/MS analysis; format: ADME, organism-based; conditions: in vivo, read-out: Vdss
[10] = Apparent permeability across basolateral to apical side in human Caco-2 cells; format: ADME, cell-based
[11] = Modulation of SMN2 splicing activity in myoblast cell line derived from the SMNdelta7 mouse model assessed as increase in SMN level treated for 24 hrs by ELISA relative to control; format: functional, Primary myoblast
[12] = Apparent permeability from apical to basolateral side in MDCK-MDR1 cells; format: ADME, cell-based, Canis lupus familiaris; conditions: dog
[13] = Apparent permeability from basolateral to apical side in MDCK-MDR1 cells; format: ADME, cell-based, Canis lupus familiaris; conditions: dog
[14] = Drug uptake in Sprague-Dawley rat brain at 3 mg/kg, po measured after 7 hrs by HPLC-MS/MS analysis; format: ADME, organism-based; conditions: read-out: Drug uptake
[15] = In vivo modulation of SMN2 splicing activity in SMN C/+ allele mouse model assessed as fold increase in full length SMN protein level in brain at 50 mg/kg, po once daily for 5 days relative to control; format: functional; conditions: time 5 day
[16] = Drug uptake in SMN C/+ allele mouse plasma at 50 mg/kg, po measured after 4 hrs; format: ADME, organism-based
[17] = Drug uptake in SMN C/+ allele mouse brain at 50 mg/kg, po measured after 4 hrs; format: ADME, organism-based; conditions: read-out: Drug uptake
[18] = Intrinsic clearance in mouse liver microsomes; format: ADME, Microsome; conditions: read-out: CLH

Compound | solubility thermodynamic [1] [µM] | microsomal CLint [2] [µL/min/mg] | EC50 [8] [nM] | fold change (FC) [11] | also measured
CN(c1ccc(-c2cc3ccccc3s2)nn1)C1CC(C)(C)NC(C)(C)C1 | 980 (≈ 373 µg/mL) | 23 |  |  | 
CN(c1nnc(-c2ccc(-c3ccn(C)c(=O)c3)cc2O)s1)C1CC(C)(C)NC(C)(C)C1 |  |  | 61 | 3.4 | Cmax [3]: 38 nM; AUC at 7 h [4]: 0.227 µM·h; clearance [5]: 163 mL/min/kg; Papp A→B [6]: 3.7 ×10⁻⁶ cm/s; half-life [7]: 1.3 h; Vd [9]: 10.7 L/kg; Papp B→A [10]: 6.8 ×10⁻⁶ cm/s
CN(c1nnc(-c2cc(F)c(-c3cn[nH]c3)cc2F)s1)C1CC(C)(C)NC(C)(C)C1 | 122 (≈ 52.8 µg/mL) | 48 | 20 | 3.1 | Papp A→B [12]: 3 ×10⁻⁶ cm/s; Papp B→A [13]: 16 ×10⁻⁶ cm/s; concentration at 7 h [14]: 141 nM
CN(c1nnc(-c2sc3ccc(C#N)cc3c2Cl)s1)C1CC(C)(C)NC(C)(C)C1 | 51 (≈ 22.7 µg/mL) | < 25 | 92 | 2.5 | 
CN(c1nnc(-c2sc3ccccc3c2Cl)s1)C1CC(C)(C)NC(C)(C)C1 | 240 (≈ 101 µg/mL) | 20 | 530 | 2.8 | 
CN(c1nnc(-c2ccc(-c3cn[nH]c3)c(F)c2F)s1)C1CC(C)(C)NC(C)(C)C1 | 48 (≈ 20.8 µg/mL) | 46 | 33 | 3 | Papp A→B [12]: 3 ×10⁻⁶ cm/s; fold change (FC) [15]: 1.6; concentration at 4 h [16]: 3600 nM; Papp B→A [13]: 8 ×10⁻⁶ cm/s; concentration at 4 h [17]: 2500 nM; concentration at 7 h [14]: 498 nM
CN(c1nnc(-c2ccc(-n3cccn3)cc2O)s1)C1CC(C)(C)NC(C)(C)C1 |  |  | 170 | 2.8 | 
COc1cc(-c2cn[nH]c2)ccc1-c1nnc(N(C)C2CC(C)(C)NC(C)(C)C2)s1 |  |  | 38 | 2.9 | 
COc1cc(-c2cnn(C)c2)ccc1-c1nnc(N(C)C2CC(C)(C)NC(C)(C)C2)s1 |  |  | 44 | 2.5 | 
CN(c1nnc(-c2ccc(-c3cn[nH]c3)cc2F)s1)C1CC(C)(C)NC(C)(C)C1 | > 1000 | 59 | 43 | 3.1 | Papp A→B [12]: 4 ×10⁻⁶ cm/s; Papp B→A [13]: 15 ×10⁻⁶ cm/s; concentration at 7 h [14]: 66 nM
Cc1cc(-c2ccn(C)c(=O)c2)ccc1-c1nnc(N(C)C2CC(C)(C)NC(C)(C)C2)s1 |  |  | 1100 | 2.6 | 
CN(c1nnc(-c2ccc(-c3cn[nH]c3)cc2Cl)s1)C1CC(C)(C)NC(C)(C)C1 | 44000 (≈ 19000 µg/mL) | 24 | 34 | 2.5 | Papp A→B [12]: 3 ×10⁻⁶ cm/s; Papp B→A [13]: 12 ×10⁻⁶ cm/s; concentration at 7 h [14]: 240 nM
COc1cc(-c2ccn(C)c(=O)c2)ccc1-c1nnc(N(C)C2CC(C)(C)NC(C)(C)C2)s1 |  |  | 130 | 3.2 | 
CN(c1nnc(-c2ccc(-c3ccn(C)c(=O)c3)cc2OC(F)(F)F)s1)C1CC(C)(C)NC(C)(C)C1 |  |  | 900 | 2.2 | 
CN(c1nnc(-c2c(O)cc(-c3cn[nH]c3)cc2Cl)s1)C1CC(C)(C)NC(C)(C)C1 | 220 (≈ 98.3 µg/mL) |  | 3 | 2.5 | microsomal CLint [18]: 116 µL/min/mg
CN(c1nnc(-c2cc(F)c(-c3cn[nH]c3)cc2Cl)s1)C1CC(C)(C)NC(C)(C)C1 | 34 (≈ 15.3 µg/mL) | 54 | 48 | 3.2 | Papp A→B [12]: 4 ×10⁻⁶ cm/s; Papp B→A [13]: 23 ×10⁻⁶ cm/s; concentration at 7 h [14]: 185 nM
CN(c1nnc(-c2ccc(-c3cn[nH]c3)cc2O)s1)C1CC(C)(C)NC(C)(C)C1 |  |  | 400 | 2.5 | 
CN(c1nnc(-c2c(O)cc(-c3cn[nH]c3)cc2F)s1)C1CC(C)(C)NC(C)(C)C1 |  |  | 6 | 2.6 | solubility [1]: Insoluble; microsomal CLint [18]: 50 µL/min/mg; Papp A→B [12]: 10 ×10⁻⁶ cm/s; Papp B→A [13]: 41 ×10⁻⁶ cm/s
CN(c1nnc(-c2ccc(-c3cnn(C)c3)cc2O)s1)C1CC(C)(C)NC(C)(C)C1 |  |  | 32 | 3.1 | Cmax [3]: 50 nM; AUC at 7 h [4]: 0.554 µM·h; clearance [5]: 71 mL/min/kg; Papp A→B [6]: 2.4 ×10⁻⁶ cm/s; half-life [7]: 2 h; Vd [9]: 7 L/kg; Papp B→A [10]: 2.5 ×10⁻⁶ cm/s
CN(c1nnc(-c2ccc(C#N)cc2O)s1)C1CC(C)(C)NC(C)(C)C1 |  |  | 8800 | 1.9 | 
CN(c1nnc(-c2ccc(-c3cnn(C)c3)cn2)s1)C1CC(C)(C)NC(C)(C)C1 |  |  | 680 | 2.3 | 
CN(c1nnc(-c2ccc(-c3cnn(C)c3)cc2C(F)(F)F)s1)C1CC(C)(C)NC(C)(C)C1 |  |  | > 30000 | 1.3 | 
COc1cc(C#N)ccc1-c1nnc(N(C)C2CC(C)(C)NC(C)(C)C2)s1 |  |  | 1000 | 2.2 | 
CN(c1nnc(-c2ccc(-n3cccn3)cc2)s1)C1CC(C)(C)NC(C)(C)C1 |  |  | 1100 | 2.8 | 
CN(c1nnc(-c2cc(-n3cccn3)ccc2O)s1)C1CC(C)(C)NC(C)(C)C1 |  |  | 1000 | 2.3 | 
CN(c1nnc(-c2c(O)cc(-c3cn[nH]c3)c(F)c2F)s1)C1CC(C)(C)NC(C)(C)C1 | 150 (≈ 67.3 µg/mL) |  | 3 | 2.7 | microsomal CLint [18]: 67 µL/min/mg; Papp A→B [12]: 8 ×10⁻⁶ cm/s; Papp B→A [13]: 23 ×10⁻⁶ cm/s
CN(c1nnc(-c2cc3ccccc3s2)s1)C1CC(C)(C)NC(C)(C)C1 | > 1000 | < 3 | 4470 | 1.7 | 
CN(c1nnc(-c2cc3cc(C#N)ccc3s2)s1)C1CC(C)(C)NC(C)(C)C1 | 170 (≈ 70 µg/mL) | 12 | 540 | 2.7 | 
COc1cc(-n2cccn2)ccc1-c1nnc(N(C)C2CC(C)(C)NC(C)(C)C2)s1 |  |  | 62 | 2.5 | Cmax [3]: 221 nM; AUC at 7 h [4]: 0.895 µM·h; clearance [5]: 72 mL/min/kg; Papp A→B [6]: 13.8 ×10⁻⁶ cm/s; half-life [7]: 1.9 h; Vd [9]: 10.9 L/kg; Papp B→A [10]: 6.9 ×10⁻⁶ cm/s
